Key:
[1] = test system: HCT116 cells; assay: ELISA screening of phage clones on HCT116 cells (cellular ELISA); type: binding, human; details: HCT116, cell line panel
Experimental: (§1) The selected phages were further identified by ELISA screening. 1×10^4 cells were seeded into each well of 96-well ELISA plates (Falcon, Calif., USA) overnight and were fixed with 2% paraformaldehyde or methanol/acetone (1:1) for 10 min at RT. The plates were washed twice with PBS and were blocked with 1% BSA in PBS (w/v) for 30 min at RT. Then individual phage clones were added and incubated for 1 hr at RT. Following washing three times with PBS, the plates were incubated with horseradish peroxidase (HRP)-conjugated mouse anti-M13 phage antibody (GE Healthcare) at 1:2000 dilution for 1 hr at RT. The plates were washed three times with PBS again, and were subsequently incubated with the peroxidase substrate o-phenylenediamine dihydrochloride (OPD; Sigma) plus H2O2. The reaction was terminated by 3 N HCl, and the absorbance was measured using microplate reader (Model 680, BioRad) at 490 nm.

[2] = test system: HCT116 xenografts; assay: Immunohistochemical localization of phages in xenograft tumor and organs; type: in vivo, mice; details: tumor vs brain, heart, lungs, colon
Experimental: The tissue samples from in vivo phage homing experiment were embedded in frozen blocks. To evaluate the phage distribution in each tissue by immunohistochemistry, the frozen specimens were cut to 8-μm-thick sections and were collected on coated slides. The slides were washed with cold PBS to remove OCT and were fixed with 4% paraformaldehyde for 10 min at RT. To block endogenous peroxidase activity, the slides were soaked with 3% hydrogen peroxide in methanol for 30 min at RT. The nonspecific antibody binding sites were blocked by immersing the section with 1% BSA in PBS for 30 min at RT. The tissue sections were incubated with mouse anti-M13 monoclonal antibody at 1:250 dilution for 1 hr, followed by adding Super Enhancer reagent (Super SENSITIVE™ Polymer HRP Detection System/DAB, BioGenex) for 20 min and Poly-HRP reagent (BioGenex) for 30 min. After washing, the sections were developed with DAB (3,3′-diaminobenzidine) Chromogen (BioGenex) supplemented with Stable DAB buffer. The reaction was stopped by adding PBS. For nuclei staining, the slides were immersed in hematoxylin for 5 min, and were then mounted with mounting solution to terminate the reaction. The images of sections were taken and analyzed using automated acquisition system (TissueGnostics).

[3] = test system: B16-F10; assay: Cellular ELISA of phage clones; type: binding, mouse
Experimental: as §1, with “nm. To evaluate the binding activities of the three selected phage clones to various human cancer cell lines, cellular ELISA was performed to detect sixteen types of human cancer cell lines, including A498, HTB-10, B16-F10, SKOV3, PC-3, U2OS, 1112SK, […], SAS, H460, MIA Paca-2, HCT116, HUVAC, CL1-5, Mahlavu, and MDA-MB-231.” for “nm.”

[4] = test system: HCT116 xenografts; assay: In vivo tumor homing, phage titer in tumor and organs; parameters: species or system mice; details: 2×10^11 pfu i.v., PBS perfusion; vs brain, lungs, heart
Experimental: (§2) Non-obese diabetic-severe combined immunodeficiency (NOD/SCID) mice were injected subcutaneously (s.c.) into the dorsolateral flank with 5×10^6 HCT116 cells. When the xenograft tumor size reached 300±50 mm^3, the mice were injected intravascularly (i.v.) with 2×10^11 pfu of the targeting phage or control phage M13KO7. Seven min after injection, the mice were sacrificed and perfused through the heart with 50 mL of PBS to wash unbound phages. After perfusion, xenograft tumor and mouse organs were taken out, washed three times with cold PBS, and cut into pans, with some of them homogenized. The phages bound to each tissue sample were recovered by log-phase Escherichia coli ER2738 culture and were titered on LB/IPTG/X-Gal agar plates. In peptide competitive inhibition experiments, 2×10^9 pfu of phage was co-injected with 100 μg of corresponding peptide or an unrelated control peptide.
To investigate the targeting ability of the selected phage clones in vivo, mice bearing HCT116 xenografts (300 mm^3) were injected with 2×10^11 pfu of either the selected phages or control phage through the tail vein. Phages were circulated and then were perfused with PBS buffer to wash out non-specific binders in circulation. After perfusion, we recovered and determined the […] of phage in tumor masses and normal organs.

[5] = test system: peripheral blood mononuclear cells (PBMC); assay: Flow cytometry binding of phage clones to normal cells; details: human PBMC
Experimental: (§3) Cells were grown to 70-80% confluence and were harvested with 10 mM EDTA in PBS. Peripheral blood mononuclear cells were prepared by using Ficoll-Paque Plus density gradient separation. After washing and suspending the cells with FACS buffer (PBS containing 1% fetal bovine serum), the cells were incubated for 1 hr at 4° C. with 5×10^9, 1×10^9 cfu individual phage clones or control phage, respectively. After washing twice with FACS buffer, cells were incubated with mouse anti-M13 monoclonal antibody (GE Healthcare) at 1:2000 dilution for 1 hr followed by 30 min with phycoerythrin (PE)-conjugated goat anti-mouse secondary antibody (Jackson ImmunoResearch) at 1:250 dilution at 4° C. The emission fluorescence signals were measured using FACSCantoll (Becton Dickinson) and were analyzed by FlowJo software.

[6] = test system: MIA Paca-2; assay: Cellular ELISA of phage clones; type: binding, human
Experimental: as §1, with “nm. To evaluate the binding activities of the three selected phage clones to various human cancer cell lines, cellular ELISA was performed to detect sixteen types of human cancer cell lines, including A498, HTB-10, B16-F10, SKOV3, PC-3, U2OS, 1112SK, […], SAS, H460, MIA Paca-2, HCT116, HUVAC, CL1-5, Mahlavu, and MDA-MB-231.” for “nm.”

[7] = test system: A498; assay: Cellular ELISA of phage clones; type: binding, human
Experimental: as §1, with “nm. To evaluate the binding activities of the three selected phage clones to various human cancer cell lines, cellular ELISA was performed to detect sixteen types of human cancer cell lines, including A498, HTB-10, B16-F10, SKOV3, PC-3, U2OS, 1112SK, […], SAS, H460, MIA Paca-2, HCT116, HUVAC, CL1-5, Mahlavu, and MDA-MB-231.” for “nm.”

[8] = test system: Mahlavu; assay: Cellular ELISA of phage clones; type: binding, human
Experimental: as §1, with “nm. To evaluate the binding activities of the three selected phage clones to various human cancer cell lines, cellular ELISA was performed to detect sixteen types of human cancer cell lines, including A498, HTB-10, B16-F10, SKOV3, PC-3, U2OS, 1112SK, […], SAS, H460, MIA Paca-2, HCT116, HUVAC, CL1-5, Mahlavu, and MDA-MB-231.” for “nm.”

[9] = test system: H184; assay: Cellular ELISA of phage clones; type: binding, human
Experimental: as §1, with “nm. To evaluate the binding activities of the three selected phage clones to various human cancer cell lines, cellular ELISA was performed to detect sixteen types of human cancer cell lines, including A498, HTB-10, B16-F10, SKOV3, PC-3, U2OS, 1112SK, […], SAS, H460, MIA Paca-2, HCT116, HUVAC, CL1-5, Mahlavu, and MDA-MB-231.” for “nm.”

[10] = test system: 1112SK; assay: Cellular ELISA of phage clones; type: binding, human
Experimental: as §1, with “nm. To evaluate the binding activities of the three selected phage clones to various human cancer cell lines, cellular ELISA was performed to detect sixteen types of human cancer cell lines, including A498, HTB-10, B16-F10, SKOV3, PC-3, U2OS, 1112SK, […], SAS, H460, MIA Paca-2, HCT116, HUVAC, CL1-5, Mahlavu, and MDA-MB-231.” for “nm.”

[11] = test system: PC-3; assay: Cellular ELISA of phage clones; type: binding, human
Experimental: as §1, with “nm. To evaluate the binding activities of the three selected phage clones to various human cancer cell lines, cellular ELISA was performed to detect sixteen types of human cancer cell lines, including A498, HTB-10, B16-F10, SKOV3, PC-3, U2OS, 1112SK, […], SAS, H460, MIA Paca-2, HCT116, HUVAC, CL1-5, Mahlavu, and MDA-MB-231.” for “nm.”

[12] = test system: HUVAC; assay: Cellular ELISA of phage clones; type: binding, human
Experimental: as §1, with “nm. To evaluate the binding activities of the three selected phage clones to various human cancer cell lines, cellular ELISA was performed to detect sixteen types of human cancer cell lines, including A498, HTB-10, B16-F10, SKOV3, PC-3, U2OS, 1112SK, […], SAS, H460, MIA Paca-2, HCT116, HUVAC, CL1-5, Mahlavu, and MDA-MB-231.” for “nm.”

[13] = test system: CL1-5; assay: Cellular ELISA of phage clones; type: binding, human
Experimental: as §1, with “nm. To evaluate the binding activities of the three selected phage clones to various human cancer cell lines, cellular ELISA was performed to detect sixteen types of human cancer cell lines, including A498, HTB-10, B16-F10, SKOV3, PC-3, U2OS, 1112SK, […], SAS, H460, MIA Paca-2, HCT116, HUVAC, CL1-5, Mahlavu, and MDA-MB-231.” for “nm.”

[14] = test system: SAS; assay: Cellular ELISA of phage clones; type: binding, human
Experimental: as §1, with “nm. To evaluate the binding activities of the three selected phage clones to various human cancer cell lines, cellular ELISA was performed to detect sixteen types of human cancer cell lines, including A498, HTB-10, B16-F10, SKOV3, PC-3, U2OS, 1112SK, […], SAS, H460, MIA Paca-2, HCT116, HUVAC, CL1-5, Mahlavu, and MDA-MB-231.” for “nm.”

[15] = test system: H460; assay: Cellular ELISA of phage clones; type: binding, human
Experimental: as §1, with “nm. To evaluate the binding activities of the three selected phage clones to various human cancer cell lines, cellular ELISA was performed to detect sixteen types of human cancer cell lines, including A498, HTB-10, B16-F10, SKOV3, PC-3, U2OS, 1112SK, […], SAS, H460, MIA Paca-2, HCT116, HUVAC, CL1-5, Mahlavu, and MDA-MB-231.” for “nm.”

[16] = test system: U2OS; assay: Cellular ELISA of phage clones; type: binding, human
Experimental: as §1, with “nm. To evaluate the binding activities of the three selected phage clones to various human cancer cell lines, cellular ELISA was performed to detect sixteen types of human cancer cell lines, including A498, HTB-10, B16-F10, SKOV3, PC-3, U2OS, 1112SK, […], SAS, H460, MIA Paca-2, HCT116, HUVAC, CL1-5, Mahlavu, and MDA-MB-231.” for “nm.”

[17] = test system: SKOV3; assay: Cellular ELISA of phage clones; type: binding, human
Experimental: as §1, with “nm. To evaluate the binding activities of the three selected phage clones to various human cancer cell lines, cellular ELISA was performed to detect sixteen types of human cancer cell lines, including A498, HTB-10, B16-F10, SKOV3, PC-3, U2OS, 1112SK, […], SAS, H460, MIA Paca-2, HCT116, HUVAC, CL1-5, Mahlavu, and MDA-MB-231.” for “nm.”

[18] = test system: MDA-MB-231; assay: Cellular ELISA of phage clones; type: binding, human
Experimental: as §1, with “nm. To evaluate the binding activities of the three selected phage clones to various human cancer cell lines, cellular ELISA was performed to detect sixteen types of human cancer cell lines, including A498, HTB-10, B16-F10, SKOV3, PC-3, U2OS, 1112SK, […], SAS, H460, MIA Paca-2, HCT116, HUVAC, CL1-5, Mahlavu, and MDA-MB-231.” for “nm.”

[19] = test system: HT29; assay: Flow cytometry surface binding of phage clones; parameters: species or system human
Experimental: as §3

[20] = test system: SW620; assay: Flow cytometry surface binding of phage clones; parameters: species or system human
Experimental: as §3

[21] = test system: HCT116 cells; assay: Flow cytometry surface binding of phage clones; parameters: species or system human
Experimental: as §3

[22] = test system: COLO205; assay: Flow cytometry surface binding of phage clones; parameters: species or system human
Experimental: as §3

[23] = test system: LS174T; assay: Flow cytometry surface binding of phage clones; parameters: species or system human
Experimental: as §3

[24] = test system: colorectal cancer; assay: Cytotoxicity of several anticancer drugs; type: cell-based; details: compared with other colon and rectal cancer drugs approved by the FDA
[25] = test system: HCT116 xenografts; assay: In vivo peptide competitive inhibition of phage tumor homing; parameters: species or system mice; details: co-injected with corresponding phage clone
Experimental: as §2
The tumor-homing ability of HCT63, HCT69 and HCT74 phages were further confirmed by peptide competitive inhibition experiment. Mice bearing HCT116 xenografts were co-injected with HCT63, HCT69 and HCT74 phages clones and the homologous cognate synthetic peptide; pHCT63, pHCT69 and pHCT74 peptides (SEQ ID NOs: 1-3, respectively), respectively.

## RLNLDIIAVTSV [HCT63]
[1]
  binding by cellular ELISA: high binding specificity
[2]
  phage localization by immunostaining of tissue sections: selectively localized in tumor tissues
[2]; listed as HCT-63
  phage localization by immunostaining of tissue sections: strong accumulated in the tumor
[3]
  binding by cellular ELISA: high binding specificity
[4]
  phage accumulation in tumor mass vs normal organs (phage titer): significantly accumulated in the tumor mass
[5]
  binding activity to PBMC (normal cells) by FACS: not to normal cells
[6]
  binding by cellular ELISA: high binding specificity
[7]
  binding by cellular ELISA: high binding specificity
[8]
  binding by cellular ELISA: high binding specificity
[9]
  binding by cellular ELISA: high binding specificity
[10]
  binding by cellular ELISA: high binding specificity
[11]
  binding by cellular ELISA: high binding specificity
[12]
  binding by cellular ELISA: high binding specificity
[13]
  binding by cellular ELISA: high binding specificity
[14]
  binding by cellular ELISA: high binding specificity
[15]
  binding by cellular ELISA: high binding specificity
[16]
  binding by cellular ELISA: high binding specificity
[17]
  binding by cellular ELISA: high binding specificity
[18]
  binding by cellular ELISA: high binding specificity
[19]
  binding activity by FACS: reacted strongly
[20]
  binding activity by FACS: reacted strongly
[21]
  cell surface-binding activity by flow cytometry: reacted strongly
[22]
  binding activity by FACS: moderately
[23]
  binding activity by FACS: reacted strongly

## CCC1=C[C@@H]2CN(C1)Cc1c([nH]c3ccccc13)[C@@](C(=O)OC)(c1cc3c(cc1OC)N(C)[C@H]1[C@@](O)(C(=O)OC)[C@H](OC(C)=O)[C@]4(CC)C=CCN5CC[C@]31[C@@H]54)C2 [Vinorelbine, vinorelbine]
[24]
  cytotoxicity profile: significantly better cytotoxicity profiles

## TSVSIVSTVLTP (HCT-69) [pHCT69]
[25]
  inhibition of phage recovery from tumor tissue by cognate peptide: markedly inhibited the recovery of phage particles from tumor tissue

## RLNLDIIAVTSV (HCT-63) [pHCT63]
[25]
  inhibition of phage recovery from tumor tissue by cognate peptide: markedly inhibited the recovery of phage particles from tumor tissue

— patent US9393316B2, “Cancer targeting peptides for enhancing anti-cancer drug delivery and therapeutic efficiencies” (priority 2014, dated 2016)
